# Patent publication US10716869B2, “Radiolabeled macrocyclic EGFR inhibitor” (Oncodesign SA, priority 2016, dated 2020)
# Key:
# [1] = radiochemical stability in vehicle by HPLC; type: physicochemical; conditions: room temperature, vehicle physiologic serum/ethanol 87.5/12.5
# Method: By this method, the final radiolabeled compound can be obtained with a radiochemical purity greater than 98% in 100-110 min with a yield that can reach 25% (decay corrected). It has been noticed that an uncompleted evaporation of the solvents used for the purification of [^18F]Fluoroethyltosylate hampers the second step and conducts to lower yields. Specific activity of productions was in the range of […]. The radiolabeled compound is stable in the conditions of formulation as radiochemical purity still greater than 95% 20 h after production with a storage at room temperature.
# After radiosynthesis, the stability of the radiotracer was evaluated by HPLC both in its vehicle and in rat plasma. Compound (I) was formulated in physiologic serum/ethanol with the respective proportion 87.5/12.5 (v/v). A mixture of compounds (I) (i.e. radiolabelled) and (Ia) (i.e. cold analogue) was stable for up to 20 hours at room temperature in its vehicle, only one peak being detected at the expected retention time. In rat plasma two peaks were detected: one at 3.15 minutes and one at 8.02 minutes (corresponding to a mixture of compounds (I) and (Ia)) after an incubation at +37° C. for 4 hours.
# [2] = system: human lung tumors (wild type EGFR, L858R mutated or exon 19 deleted EGFR); experiment: autoradiography on human frozen tumor sections
# Text: Three types of human lung tumors were included: tumors harboring wild type EGFR and tumors carrying L858R mutated or exon 19 deleted EGFR genes.
# NCI-H3255 tumors = experiment: tumor uptake in xenograft-bearing Nude rats; type: in vivo
# Method: (§1) Dynamic PET scan imaging and ex vivo gamma counting were performed on three cancer xenografts (NCI-H441, NCI-H3255, NCI-H1975) in Nude rats. Xenografts were initiated in athymic, Hsd:RH-Foxnlrnu rats (Harlan, The Netherlands) by subcutaneous injection of 2×10^7 cells in 200 μL RPMI 1640 in the left and right flanks. NCI-H3255 tumor cells were injected in the right flank and NCI-H441 or NCI-H1975 in the left flank. Each study consisted in two experiments on 18 or 19 rats, for a total of 113 rats. Injection of NCI-H3255 cells was performed on DO, 24 to 72 hours after a whole-body irradiation with a […] (5 Gy, ^60Co, BioMep SARL, Bretenières, France). […] Tumors were grown until a target volume of 500-1500 mm^3 for both tumors was reached, whenever possible. All procedures using animals were approved by the Animal Care and Use Committee of Oncodesign (CNREEA agreement No 91).
# (§2) The radiotracer solution was diluted in NaCl 0.9% to prepare a solution of activity 4-6 MBq (gamma-counting experiments) or 25-35 MBq (PET imaging experiments) in a volume of 300-400 or 600-800 μL, respectively. The radioactivity in the syringe was measured before and after tracer injection to determine the injected dose (ID) to animals. Rats were anesthetized with inhaled isoflurane (2% in air) for compound injection and throughout the course of image acquisition. After compound injection, rats were allowed to wake up and put back in their cage for an uptake period ranging from 20 to 120 minutes depending on the experiment.
# (§3) For ex vivo gamma counting, after the determined uptake period or after imaging, rats were euthanized by decapitation, and the following organs were harvested and weighed: tumor, kidneys, blood, liver, heart, tail, thigh muscle, lungs, spleen and skin. Tracer distribution was assessed by determining ^18F content in each tissue with a gamma-well counter (PerkinElmer 2480 Wizard2 3). Counting data are reported as % ID per gram of tissue (% ID/g). Once radioactivity in organs was measured, some samples were prepared for immunohistochemistry.
# (§4) For imaging experiments, rats were positioned prone in a dedicated rat imaging chamber (Minerve, France). Their body temperature was maintained by a flow of warm air through the structure of the imaging bed. PET imaging was performed on a microPET eXplore Vista CT (General Electric Healthcare) system. The Vista system, equipped with 36 dual-layer LYSO/GSO phoswich detector modules, has an effective axial/transaxial field of view of 4.8/6.7 cm. The spatial resolution is <2 mm in all directions and in the whole field of view. The sensitivity is above 2.5% in the whole field of view. After a scout image to adjust the position of the field of view, a CT scan was acquired (140 μA, 40 kV). […]
# NCI-H1975 tumors = experiment: tumor uptake in xenograft-bearing Nude rats; type: in vivo; conditions: NCI-H1975, at 180 min
# Method: as §1, §2, §3, §4
# NCI-H441 tumors = experiment: tumor uptake in xenograft-bearing Nude rats; type: in vivo; conditions: NCI-H441, at 180 min
# Method: as §1, §2, §3, §4
# [3] = target: T1, NCI-H1975 tumor homogenates (activated EGFR) (Homo sapiens, UniProt P00533, L858R/T790M); experiment: binding competition and binding kinetic on tumor homogenates
# T1 construct: from tissue; host or cells: NCI-H1975 tumor homogenate
# T1 sequence (P00533 25-1210 T790M/L858R): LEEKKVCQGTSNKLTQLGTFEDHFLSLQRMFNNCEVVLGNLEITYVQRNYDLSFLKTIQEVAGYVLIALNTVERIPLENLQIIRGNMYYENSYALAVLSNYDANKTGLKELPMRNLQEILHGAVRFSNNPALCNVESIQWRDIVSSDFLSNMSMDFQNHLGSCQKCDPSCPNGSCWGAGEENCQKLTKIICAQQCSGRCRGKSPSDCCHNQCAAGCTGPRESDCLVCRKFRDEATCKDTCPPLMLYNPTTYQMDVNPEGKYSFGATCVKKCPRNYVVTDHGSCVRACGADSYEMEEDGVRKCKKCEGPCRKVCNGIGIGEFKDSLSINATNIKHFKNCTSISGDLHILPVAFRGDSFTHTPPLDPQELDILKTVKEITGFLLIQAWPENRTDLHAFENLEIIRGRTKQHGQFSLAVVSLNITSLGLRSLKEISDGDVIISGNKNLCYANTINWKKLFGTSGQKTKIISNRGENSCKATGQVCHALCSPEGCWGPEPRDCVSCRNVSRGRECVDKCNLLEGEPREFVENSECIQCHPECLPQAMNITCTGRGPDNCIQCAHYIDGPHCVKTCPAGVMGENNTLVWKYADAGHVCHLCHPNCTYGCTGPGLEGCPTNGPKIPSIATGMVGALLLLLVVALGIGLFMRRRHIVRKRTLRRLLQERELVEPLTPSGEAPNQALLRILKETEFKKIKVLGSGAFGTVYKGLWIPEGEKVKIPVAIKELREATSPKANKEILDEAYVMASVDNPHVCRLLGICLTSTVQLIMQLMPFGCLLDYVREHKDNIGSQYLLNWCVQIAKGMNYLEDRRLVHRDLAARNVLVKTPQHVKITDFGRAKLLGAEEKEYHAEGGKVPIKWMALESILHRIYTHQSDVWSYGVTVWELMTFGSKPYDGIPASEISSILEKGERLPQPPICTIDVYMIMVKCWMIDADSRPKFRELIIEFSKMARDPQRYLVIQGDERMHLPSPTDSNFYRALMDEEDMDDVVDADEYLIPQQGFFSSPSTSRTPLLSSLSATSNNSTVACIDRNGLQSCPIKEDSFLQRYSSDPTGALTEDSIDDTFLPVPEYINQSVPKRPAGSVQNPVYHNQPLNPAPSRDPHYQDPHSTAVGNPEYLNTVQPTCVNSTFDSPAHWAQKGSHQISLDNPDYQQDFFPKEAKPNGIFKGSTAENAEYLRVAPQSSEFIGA
# Method: (§5) FIG. 2: Binding affinity constant of Compound (II) determined in competition experiments on NCI-H3255 (A) and NCI-H1975 (B) tumor extracts. NCI-H3255 and NCI-H1975 tumor extracts were incubated at room temperature for 90 min with Compound (II) (0.1-0.3 nM) and with increasing concentrations of Compound (IIa) (0.25 nM to 1 μM).
# (§6) FIG. 3: Binding kinetic of Compound (II) evaluated on NCI-H3255 (A) and NCI-H1975 (B) tumor extracts. Compound (II) (1.5-2.5 nM) was incubated with extracts for 2 to 90 minutes at room temperature. Non-specific binding was evaluated in the presence of a>100 fold excess Compound (IIa).
# (§7) Similar experiments were performed on NCI-H3255 and NCI-H1975 tumor homogenates (FIG. 2). […] The number of binding sites was 1.1±1.5×10^9 and 1.6±1.8×10^9 sites/μg protein respectively in NCI-H3255 and NCI-H1975 tumor homogenates.
# (§8) The binding kinetic of Compound (I) was also assessed in NCI-H3255 and NCI-H1975 tumor homogenates (FIG. 3).
# [4] = target: T2, NCI-H3255 tumor homogenates (activated EGFR) (Homo sapiens, UniProt P00533, L858R); experiment: as above
# T2 construct: from tissue; host or cells: NCI-H3255 tumor homogenate
# T2 sequence (P00533 25-1210 L858R): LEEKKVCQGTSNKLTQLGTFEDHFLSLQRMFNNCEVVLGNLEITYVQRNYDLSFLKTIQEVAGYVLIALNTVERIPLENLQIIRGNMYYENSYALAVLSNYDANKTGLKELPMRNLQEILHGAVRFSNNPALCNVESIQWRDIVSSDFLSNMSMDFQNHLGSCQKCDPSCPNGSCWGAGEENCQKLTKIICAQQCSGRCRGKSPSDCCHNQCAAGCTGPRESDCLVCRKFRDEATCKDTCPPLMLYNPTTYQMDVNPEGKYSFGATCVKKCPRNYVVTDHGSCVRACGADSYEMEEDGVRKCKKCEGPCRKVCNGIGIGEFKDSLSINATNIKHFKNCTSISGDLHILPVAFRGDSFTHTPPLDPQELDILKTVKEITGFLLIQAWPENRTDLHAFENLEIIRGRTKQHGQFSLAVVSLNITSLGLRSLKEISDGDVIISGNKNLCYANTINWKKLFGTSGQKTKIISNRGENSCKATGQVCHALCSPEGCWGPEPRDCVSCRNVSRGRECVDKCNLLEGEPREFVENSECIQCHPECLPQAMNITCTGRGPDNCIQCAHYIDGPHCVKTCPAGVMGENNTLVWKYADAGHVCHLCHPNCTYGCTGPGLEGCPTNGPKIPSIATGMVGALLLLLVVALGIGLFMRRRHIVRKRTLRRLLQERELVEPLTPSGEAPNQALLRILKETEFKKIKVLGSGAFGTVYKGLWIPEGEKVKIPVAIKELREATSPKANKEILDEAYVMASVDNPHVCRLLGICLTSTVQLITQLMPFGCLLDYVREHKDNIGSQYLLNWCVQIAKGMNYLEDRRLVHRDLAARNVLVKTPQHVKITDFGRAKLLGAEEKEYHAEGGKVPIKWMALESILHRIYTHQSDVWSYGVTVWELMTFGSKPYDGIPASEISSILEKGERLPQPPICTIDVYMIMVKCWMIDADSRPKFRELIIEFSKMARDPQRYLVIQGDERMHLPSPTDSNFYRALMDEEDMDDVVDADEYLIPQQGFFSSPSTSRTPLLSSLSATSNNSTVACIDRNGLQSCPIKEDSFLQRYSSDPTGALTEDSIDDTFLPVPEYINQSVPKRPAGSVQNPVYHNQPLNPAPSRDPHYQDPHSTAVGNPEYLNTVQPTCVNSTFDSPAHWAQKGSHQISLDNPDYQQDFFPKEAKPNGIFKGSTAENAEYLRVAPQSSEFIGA
# Method: as §5, §6, §7, §8
# [5] = biodistribution in tumor-bearing Nude rats (ex vivo gamma counting)
# Method: Dynamic PET scan imaging and ex vivo gamma counting were performed on three cancer xenografts (NCI-H441, NCI-H3255, NCI-H1975) in Nude rats. Xenografts were initiated in athymic, Hsd:RH-Foxnlrnu rats (Harlan, The Netherlands) by subcutaneous injection of 2×10^7 cells in 200 μL RPMI 1640 in the left and right flanks. NCI-H3255 tumor cells were injected in the right flank and NCI-H441 or NCI-H1975 in the left flank. Each study consisted in two experiments on 18 or 19 rats, for a total of 113 rats. Injection of NCI-H3255 cells was performed on DO, 24 to 72 hours after a whole-body irradiation with a […] (5 Gy, ^60Co, BioMep SARL, Bretenières, France). […]
# The radiotracer solution was diluted in NaCl 0.9% to prepare a solution of activity 4-6 MBq (gamma-counting experiments) or 25-35 MBq (PET imaging experiments) in a volume of 300-400 or 600-800 μL, respectively. The radioactivity in the syringe was measured before and after tracer injection to determine the injected dose (ID) to animals. […]
# as §3, with “Counting data are reported as % ID per gram of tissue (% ID/g). Once radioactivity in organs was measured, some samples were prepared for immunohistochemistry.” left out
# [6] = read-out: dissociation constant (Koff) (converted)
structure (smiles),measurement,setting,value
CC(C)C1NC(=O)Cc2ccc(Cl)cc2Nc2ncnc3cc(OCC[18F])c(cc23)OCCCNC1=O (centres unmarked) [Compound (I)],Radiochemical stability,[1],>20 h
same,specific binding on frozen tumor sections,[2],specific binding of Compound (I) was observed on all tumor types
same,normalized uptake (tumor over muscle),"NCI-H3255 tumors; NCI-H3255, at 180 min",12
same,uptake in NCI-H3255 tumors,NCI-H3255 tumors; stable between 90 min and 180 min,around 0.2 % ID/g
same,normalized uptake (tumor over muscle),NCI-H1975 tumors,3.6
same,normalized uptake (tumor over muscle),NCI-H441 tumors,2.6
same,number of binding sites,[3],1.6±1.8×10^9 sites/μg protein
same,Kd,[3]; read-out: binding affinity,4.7 ± 2 nM
same,koff,[3]; [6],0.0045 s⁻¹
same,number of binding sites,[4],1.1±1.5×10^9 sites/μg protein
same,Kd,[4]; read-out: binding affinity,2.8 ± 2.4 nM
same,koff,[4]; [6],0.0019 s⁻¹
same,uptake in blood,[5]; after 45 min,< 0.05 % ID/g
same,absolute uptake in tumors,[5]; at 90 min,< 0.5 % ID/g
